Among the data in ChEMBL document CHEMBL5715942, “A novel histone deacetylase 8 (HDAC8)-specific inhibitor PCI-34051 induces apoptosis in T-cell lymphomas” (Leukemia, 2008) are Activity and GI50 values, retold here.

Experiment [1] deals with Jurkat. The experiment is described as follows: Cytotoxicity in human Jurkat cells assessed as histone acetylation at <25 uM incubated for 24 hrs by Western blotting analysis. Type of experiment: functional, cell-based. Background: A western blot detects proteins with antibodies after separation by electrophoresis.
Experiment [2] deals with Jurkat. The experiment is described as follows: Induction of apoptosis in human Jurkat cells assessed as intracellular calcium level at 10 uM in presence of Iodo-1 and U73343 by spectrofluorimetric analysis. Format: functional, cell-based. (A change in cytosolic calcium serves as a functional read-out for many receptors and channels.)
A further experiment deals with SUD4. Description: Induction of apoptosis in human SU-DHL-4 cells assessed as cell death at 5 uM incubated for 2 days by Annexin-V staining based flow cytometry analysis. Type of experiment: functional. The following applies: time 2.0 day.
In experiment [3] the test system is Jurkat. The experiment is described as follows: Cytotoxicity in human Jurkat cells assessed as tubulin acetylation at <25 uM incubated for 24 hrs by Western blotting analysis. Format: functional, cell-based.
The subject of the next experiment is CCRF-HSB-2. The experiment is described as follows: Anti-proliferative activity against human CCRF-HSB-2 cells assessed as growth inhibition incubated for 72 hrs by alamar blue staining based fluorometric assay. Type of experiment: functional. On the technique in general: The colour change of resazurin is a common sign of viable cells or microbes.
Experiment [4] concerns J.gamma1. The experiment is described as follows: Induction of apoptosis in human J.gamma1 cells at 10 uM incubated for 2 days in presence of U-73343 by Annexin-V staining based flow cytometry analysis. Format: functional, cell-based. The following applies: time 2.0 day.
For another experiment, the system named is DB. Description: Induction of apoptosis in human DB cells assessed as cell death at 5 uM incubated for 2 days by Annexin-V staining based flow cytometry analysis. The following applies: time 2.0 day. Type of experiment: functional.
For experiment [5], the system named is J.gamma1. Description: Induction of apoptosis in human J.gamma1 cells assessed as cytochrome c release from mitochondria at 10 uM incubated for 12 to 24 hrs by Western blotting analysis. Format: functional, cell-based. The note with it: time lower 12.0 hrs, time upper […].
The test system of experiment [6] is RKO. The experiment is described as follows: Induction of apoptosis in human RKO cells incubated for 72 hrs by Annexin-V staining based flow cytometry analysis relative to control. Type of experiment: functional.
Experiment [7] relates to RKO. Description: Anti-proliferative activity against human RKO cells assessed as growth inhibition incubated for 72 hrs by alamar blue staining based fluorometric assay. Type of experiment: functional.
The subject of experiment [8] is Jurkat. Description: Downregulation of apoptosis in human Jurkat cells at 10 uM incubated for 2 days in presence of U-73343 by Annexin-V staining based flow cytometry analysis. Type of experiment: functional, cell-based. The note with it: time 2.0 day.
For a further experiment, the system named is K562. Description: Anti-proliferative activity against human K562 cells assessed as growth inhibition incubated for 72 hrs by alamar blue staining based fluorometric assay. Format: functional.
Another experiment deals with A549. Description: Induction of apoptosis in human A549 cells incubated for 72 hrs by Annexin-V staining based flow cytometry analysis relative to control. Format: functional.

One may read the GI50 as the concentration at which growth is held to half of that of the control.

Activity calls are given as the source filed them. The rule behind the calls is not given here.

Turning to `COc1ccc(Cn2ccc3ccc(C(=O)NO)cc32)cc1`, the outcome in the experiment with Jurkat [1], in the experiment with SUD4, with Jurkat [3], with J.gamma1 [4], in the experiment on DB and in the experiment with J.gamma1 [5] was inactive. Besides, the outcome in the experiment with Jurkat [8] was inactive. Also, the result in the experiment on Jurkat [2] was Active. Moreover, the GI50 with CCRF-HSB-2 stood at 1.4 µM; in the experiment on RKO [7] it was 14 µM; with K562, 33.6 µM. In addition, the Activity in the experiment with RKO [6] and in the experiment with A549 was 0% throughout.
